A short description of series [1]: Chemical stability of the compound in at pH 7.4 measured at 48 hrs by HPLC based non-enzymatic stability assay. The class given is physicochemical. The following applies: buffer, read-out: Stability.
Series [2] has as its system HEK293. The series is described as follows: Cytotoxicity against human HEK293 cells assessed as cell viability at 50 uM incubated for 24 hrs by Alamar Blue reagent based assay relative to control. The class given is functional. The following applies: read-out: Activity. In general terms: Alamar Blue is a resazurin reagent that responds to reducing activity.
Series [3] is described as follows: Chemical stability of the compound in at pH 7.4 measured at 24 hrs by HPLC based non-enzymatic stability assay. Type of series: physicochemical. Conditions: buffer, read-out: Stability.
Series [4] deals with T1, Protein cereblon/Serine/threonine-protein kinase ATR (Homo sapiens) (UniProt Q13535+Q96SW2). The series is described as follows: PROTAC activity at ATR/CRBN in patient derived human MIA PaCa-2 cells assessed as reduction in protein level at 5 uM measured after 24 hrs by immunoblot analysis relative to untreated control. Type of series: cell-based. Details: scale not given: the % may be the effect or the level left.
T1 sequence (Q13535 whole entry, looked up): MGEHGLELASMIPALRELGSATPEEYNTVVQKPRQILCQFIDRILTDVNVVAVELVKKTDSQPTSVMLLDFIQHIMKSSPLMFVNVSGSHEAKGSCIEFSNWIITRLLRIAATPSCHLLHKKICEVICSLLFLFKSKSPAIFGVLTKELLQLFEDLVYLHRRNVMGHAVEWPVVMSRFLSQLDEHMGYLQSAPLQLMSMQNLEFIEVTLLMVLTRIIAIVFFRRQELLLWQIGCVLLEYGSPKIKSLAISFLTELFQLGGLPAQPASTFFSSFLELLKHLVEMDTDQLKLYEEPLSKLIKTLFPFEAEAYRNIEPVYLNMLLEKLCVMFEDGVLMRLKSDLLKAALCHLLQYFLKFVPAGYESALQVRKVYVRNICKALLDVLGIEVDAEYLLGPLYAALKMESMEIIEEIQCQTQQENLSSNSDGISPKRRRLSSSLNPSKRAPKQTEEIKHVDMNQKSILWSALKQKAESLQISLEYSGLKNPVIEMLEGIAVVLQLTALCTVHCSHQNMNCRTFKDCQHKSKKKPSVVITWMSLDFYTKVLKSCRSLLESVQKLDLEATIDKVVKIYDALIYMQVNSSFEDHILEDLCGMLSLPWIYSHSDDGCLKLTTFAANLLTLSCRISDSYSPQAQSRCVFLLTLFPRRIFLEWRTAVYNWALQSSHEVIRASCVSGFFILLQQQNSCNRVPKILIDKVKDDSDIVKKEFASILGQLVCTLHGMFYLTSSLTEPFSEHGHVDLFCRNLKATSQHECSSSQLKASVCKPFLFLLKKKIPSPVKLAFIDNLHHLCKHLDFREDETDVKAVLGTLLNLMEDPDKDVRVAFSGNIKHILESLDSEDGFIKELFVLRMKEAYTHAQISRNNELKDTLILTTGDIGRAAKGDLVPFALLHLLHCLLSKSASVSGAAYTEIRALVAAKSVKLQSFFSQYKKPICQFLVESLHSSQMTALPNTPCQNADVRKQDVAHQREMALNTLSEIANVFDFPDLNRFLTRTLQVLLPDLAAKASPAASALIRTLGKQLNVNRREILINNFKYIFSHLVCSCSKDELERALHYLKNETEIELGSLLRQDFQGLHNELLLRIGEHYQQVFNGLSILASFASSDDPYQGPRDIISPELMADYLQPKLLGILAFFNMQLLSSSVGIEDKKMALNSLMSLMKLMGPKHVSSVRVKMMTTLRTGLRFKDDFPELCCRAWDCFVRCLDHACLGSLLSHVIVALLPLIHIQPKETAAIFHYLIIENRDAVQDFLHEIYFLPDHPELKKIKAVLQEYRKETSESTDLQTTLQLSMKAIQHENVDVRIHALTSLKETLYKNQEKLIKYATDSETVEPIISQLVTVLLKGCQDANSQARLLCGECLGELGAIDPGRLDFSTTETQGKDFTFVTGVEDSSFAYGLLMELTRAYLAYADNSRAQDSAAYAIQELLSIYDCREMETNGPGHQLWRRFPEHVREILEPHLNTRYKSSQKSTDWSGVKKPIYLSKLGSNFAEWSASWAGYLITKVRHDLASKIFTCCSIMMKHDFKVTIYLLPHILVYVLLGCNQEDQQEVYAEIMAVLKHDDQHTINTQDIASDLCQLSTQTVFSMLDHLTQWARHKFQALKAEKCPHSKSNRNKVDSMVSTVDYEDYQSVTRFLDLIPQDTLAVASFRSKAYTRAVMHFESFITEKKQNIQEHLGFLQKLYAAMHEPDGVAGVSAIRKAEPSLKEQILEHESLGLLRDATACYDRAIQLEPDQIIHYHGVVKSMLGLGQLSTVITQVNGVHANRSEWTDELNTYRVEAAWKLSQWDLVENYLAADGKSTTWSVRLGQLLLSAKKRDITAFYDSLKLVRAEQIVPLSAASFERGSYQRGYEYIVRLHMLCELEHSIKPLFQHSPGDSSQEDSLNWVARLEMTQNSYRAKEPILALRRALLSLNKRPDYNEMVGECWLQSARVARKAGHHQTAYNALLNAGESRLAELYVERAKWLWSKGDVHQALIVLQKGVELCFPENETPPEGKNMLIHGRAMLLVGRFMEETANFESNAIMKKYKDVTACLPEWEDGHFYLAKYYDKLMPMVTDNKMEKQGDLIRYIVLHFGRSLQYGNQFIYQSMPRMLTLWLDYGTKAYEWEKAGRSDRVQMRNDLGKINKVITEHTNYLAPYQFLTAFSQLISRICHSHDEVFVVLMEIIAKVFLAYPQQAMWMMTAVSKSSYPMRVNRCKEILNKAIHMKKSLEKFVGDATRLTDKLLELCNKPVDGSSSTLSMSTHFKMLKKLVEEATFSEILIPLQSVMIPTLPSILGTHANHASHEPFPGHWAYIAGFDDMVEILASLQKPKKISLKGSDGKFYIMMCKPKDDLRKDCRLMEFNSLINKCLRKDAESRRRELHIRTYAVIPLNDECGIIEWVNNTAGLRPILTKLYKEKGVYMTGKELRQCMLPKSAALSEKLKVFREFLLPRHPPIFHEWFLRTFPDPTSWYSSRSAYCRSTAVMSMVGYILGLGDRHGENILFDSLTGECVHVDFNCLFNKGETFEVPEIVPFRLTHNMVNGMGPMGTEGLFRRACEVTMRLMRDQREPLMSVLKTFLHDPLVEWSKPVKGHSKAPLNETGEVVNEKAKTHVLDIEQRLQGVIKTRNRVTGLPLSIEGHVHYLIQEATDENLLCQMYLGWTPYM
T1 sequence (Q96SW2 whole entry, looked up): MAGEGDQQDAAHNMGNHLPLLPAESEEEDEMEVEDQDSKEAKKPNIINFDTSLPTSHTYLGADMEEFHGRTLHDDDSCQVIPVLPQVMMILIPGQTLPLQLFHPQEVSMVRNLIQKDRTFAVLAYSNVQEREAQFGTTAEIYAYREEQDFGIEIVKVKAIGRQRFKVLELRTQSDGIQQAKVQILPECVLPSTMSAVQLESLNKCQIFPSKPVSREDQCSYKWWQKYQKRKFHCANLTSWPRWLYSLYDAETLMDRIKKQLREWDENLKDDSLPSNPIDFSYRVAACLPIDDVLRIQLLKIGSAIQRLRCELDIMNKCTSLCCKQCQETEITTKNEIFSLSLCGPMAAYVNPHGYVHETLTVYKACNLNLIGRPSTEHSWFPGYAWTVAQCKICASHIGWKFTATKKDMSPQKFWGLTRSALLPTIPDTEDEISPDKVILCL

Series [5] is described as follows: Chemical stability of the compound in at pH 7.4 measured at 72 hrs by HPLC based non-enzymatic stability assay. Type of series: physicochemical. Conditions: buffer, read-out: Stability.
Series [6] is described as follows: Chemical stability of the compound in at pH 7.4 measured at 6 hrs by HPLC based non-enzymatic stability assay. The following applies: buffer, read-out: Stability. Type of series: physicochemical.
Series [7] is described as follows: Chemical stability of the compound in at pH 7.4 measured at 12 hrs by HPLC based non-enzymatic stability assay. The class given is physicochemical. Conditions: buffer, read-out: Stability.
Series [8] deals with MIA PaCa-2. The series is described as follows: Induction of […] degradation in patient derived human MIA PaCa-2 cells assessed as reduction in protein level at 2 uM measured after 24 hrs by immunoblot analysis. Type of series: functional, cell-based. A general note: Immunoblotting shows a protein as a band on a membrane.
Series [9] addresses T2, von Hippel-Lindau disease tumor suppressor/Serine/threonine-protein kinase ATR (Homo sapiens) (UniProt Q13535+P40337). Put plainly: PROTAC activity at ATR/VHL in patient derived human MIA PaCa-2 cells assessed as protein degradation at 5 uM measured after 24 hrs by immunoblot analysis relative to untreated control. The class given is cell-based.
Series [10] has as its target T2, von Hippel-Lindau disease tumor suppressor/Serine/threonine-protein kinase ATR (Homo sapiens). Put plainly: PROTAC activity at ATR/VHL in patient derived human MIA PaCa-2 cells assessed as protein degradation at 2 uM measured after 24 hrs by immunoblot analysis relative to untreated control. The class given is cell-based.
For series [11], the target named is T1, Protein cereblon/Serine/threonine-protein kinase ATR (Homo sapiens). Put plainly: PROTAC activity at ATR/CRBN in patient derived human MIA PaCa-2 cells assessed as reduction in protein level at 0.1 to 5 uM measured after 24 hrs by immunoblot analysis relative to untreated control. Type of series: cell-based. Conditions: dose 0.1-5 µM.
A short description of series [12]: Plasma protein binding in human plasma. The class given is ADME, cell-free. Conditions: read-out: PPB (converted).
In series [13] the target is ATR/ATRIP (Homo sapiens, UniProt Q13535). The series is described as follows: Inhibition of human ATR/ATRIP complex using GST-cMyc-p53 substrate measured after 30 mins by HTRF based non-radioactive in vitro assay. Type of series: protein-complex assay. In general terms: TR-FRET usually uses a lanthanide donor and a delayed reading to cut background.
ATR/ATRIP, sequence (Q13535 whole entry): as the sequence (Q13535 whole entry, looked up) above
ATR/ATRIP, sequence (Q8WXE1 whole entry, further chain): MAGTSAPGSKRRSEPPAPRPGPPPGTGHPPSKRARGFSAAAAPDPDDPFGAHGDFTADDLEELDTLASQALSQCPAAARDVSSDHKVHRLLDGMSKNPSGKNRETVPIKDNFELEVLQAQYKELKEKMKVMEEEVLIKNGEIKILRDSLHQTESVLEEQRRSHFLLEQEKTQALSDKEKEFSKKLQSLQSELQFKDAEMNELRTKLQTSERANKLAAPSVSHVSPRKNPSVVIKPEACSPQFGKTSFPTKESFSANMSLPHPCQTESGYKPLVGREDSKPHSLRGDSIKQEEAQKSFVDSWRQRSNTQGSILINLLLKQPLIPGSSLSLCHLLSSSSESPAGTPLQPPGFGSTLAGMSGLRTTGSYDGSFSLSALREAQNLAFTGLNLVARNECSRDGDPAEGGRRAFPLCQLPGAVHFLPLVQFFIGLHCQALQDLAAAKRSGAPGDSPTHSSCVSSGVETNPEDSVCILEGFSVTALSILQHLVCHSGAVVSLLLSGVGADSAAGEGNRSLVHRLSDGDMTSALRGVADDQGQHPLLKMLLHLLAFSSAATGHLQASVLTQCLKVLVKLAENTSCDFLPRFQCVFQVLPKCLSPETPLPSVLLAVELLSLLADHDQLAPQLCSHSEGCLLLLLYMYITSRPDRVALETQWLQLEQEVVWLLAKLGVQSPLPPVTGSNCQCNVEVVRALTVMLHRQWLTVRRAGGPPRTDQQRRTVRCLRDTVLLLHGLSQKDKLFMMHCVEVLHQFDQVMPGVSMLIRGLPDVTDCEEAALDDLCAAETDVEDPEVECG
Series [14] can be described thus: Plasma stability in human plasma assessed as compound remaining at 20 uM measured after 24 hrs by HPLC analysis. Type of series: ADME, cell-free. The following applies: read-out: Stability.
Series [15] has as its target T1, Protein cereblon/Serine/threonine-protein kinase ATR (Homo sapiens). Put plainly: PROTAC activity at ATR/CRBN in patient derived human MIA PaCa-2 cells assessed as reduction in protein level at 1 uM measured after 24 hrs by immunoblot analysis relative to untreated control. Type of series: cell-based.
For series [16], the system named is MIA PaCa-2. Put plainly: Effect on CRBN expression in patient derived siCRBN transfected human MIA PaCa-2 cells at 5 uM measured after 24 hrs by immunoblot analysis. Type of series: functional, cell-based.
Series [17] deals with T1, Protein cereblon/Serine/threonine-protein kinase ATR (Homo sapiens). Put plainly: PROTAC activity at ATR/CRBN in patient derived human MIA PaCa-2 cells assessed as reduction in protein level at 2 uM measured after 24 hrs by immunoblot analysis relative to untreated control. Type of series: cell-based.

The source made the active and inactive calls. The calls are words filed in the database; no cut-off is given here.

T2 sequence (P40337 whole entry, looked up): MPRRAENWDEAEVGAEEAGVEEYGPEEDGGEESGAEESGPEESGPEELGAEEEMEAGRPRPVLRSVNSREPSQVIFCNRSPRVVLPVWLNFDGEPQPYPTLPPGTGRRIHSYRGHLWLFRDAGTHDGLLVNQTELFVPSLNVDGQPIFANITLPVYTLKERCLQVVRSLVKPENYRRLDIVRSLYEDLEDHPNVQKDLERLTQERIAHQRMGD
T2 sequence (Q13535 whole entry, looked up): as the sequence (Q13535 whole entry, looked up) above

With `Nc1ncc(-c2ccc(S(=O)(=O)NCCCCCC(=O)N3CCN(c4ccc5c(c4)C(=O)N(C4CCC(=O)NC4=O)C5=O)CC3)cc2)nc1C(=O)Nc1ccccc1` (stereo not drawn), the remaining at 48 h in series [1] amounted to 87%. Besides, in series [2], the viability at 50 µM was determined as 96%. The remaining at 24 h in [3] is 96%. Also, the Activity in series [4] came to 40%. The remaining at 72 h in [5] was determined as 72%. Besides, the remaining at 6 h in series [6] was 101%. In addition, the remaining at 12 h in series [7] is 101%.
As to `CS(=O)(=O)c1ccc(-c2cnc(N)c(C(=O)Nc3ccccc3)n2)cc1`, the outcome in [8] was inactive.
For the compound `Cc1ncsc1-c1ccc(CNC(=O)[C@@H]2C[C@@H](O)CN2C(=O)[C@@H](NC(=O)CCOCCOCCNS(=O)(=O)c2ccc(-c3cnc(N)c(C(=O)Nc4ccccc4)n3)cc2)C(C)(C)C)cc1`, the outcome in [9] and in [10] was inactive. In addition, in [1], the remaining at 48 h was determined as 101%. Further, in series [2], the viability at 50 µM was 44.5%. Moreover, in series [3], the remaining at 24 h was found to be 101%. In addition, in series [5], the remaining at 72 h turned out to be 102%. Also, the remaining at 6 h in series [6] is 100%. The remaining at 12 h in series [7] was 100%.
With `Cc1ncsc1-c1ccc(CNC(=O)[C@@H]2C[C@@H](O)CN2C(=O)[C@@H](NC(=O)CCCCCNS(=O)(=O)c2ccc(-c3cnc(N)c(C(=O)Nc4ccccc4)n3)cc2)C(C)(C)C)cc1`, the outcome in series [9] and in series [10] was inactive. Moreover, the remaining at 48 h in series [1] turned out to be 100%. Further, the viability at 50 µM in series [2] worked out at 60.3%. Besides, the remaining at 24 h in series [3] was determined as 100%. In addition, the remaining at 72 h in series [5] came out at 100%. The remaining at 6 h in series [6] turned out to be 99%. In series [7], the remaining at 12 h stood at 99%.
Regarding `Nc1ncc(-c2ccc(S(=O)(=O)NCCCCCC(=O)N3CCN(c4ccc5c(c4)C(=O)N(C4CCC(=O)NC4=O)C5=O)CC3)cc2)nc1-c1nnc(-c2ccccc2)o1` (stereo not drawn), the remaining at 48 h in [1] came out at 80%. In addition, the viability at 50 µM in [2] came to 85.6%. For the same compound, in series [3], the remaining at 24 h is 90%. Besides, the remaining at 72 h in series [5] is 73%. The result in series [11] was inactive. The remaining at 6 h in series [6] turned out to be 96%. Besides, in [7], the remaining at 12 h is 92%.
For the compound `Nc1ncc(-c2ccc(S(=O)(=O)NCCCCCC(=O)N3CCN(c4cccc(C(=O)NC5CCC(=O)NC5=O)n4)CC3)cc2)nc1C(=O)Nc1ccccc1` (stereo not drawn), the remaining at 48 h in series [1] amounted to 82%. The viability at 50 µM in [2] worked out at 86.5%. In addition, in series [3], the remaining at 24 h worked out at 97%. Moreover, in series [5], the remaining at 72 h stood at 65%. Besides, the result in series [11] was inactive. Besides, the remaining at 6 h in series [6] was 102%. Besides, in series [7], the remaining at 12 h stood at 104%.
In the case of `CNS(=O)(=O)c1ccc(-c2cnc(N)c(C(=O)Nc3ccccc3)n2)cc1`, the fraction unbound in series [12] is 0.225. In addition, the remaining at 48 h in series [1] was 102%. For the same compound, the viability at 50 µM in series [2] was found to be 83.7%. Moreover, in series [3], the remaining at 24 h turned out to be 100%. Also, the remaining at 72 h in [5] was 104%. Moreover, the IC50 in [13] stood at 1000 nM. The remaining at 24 h, 20 µM in series [14] is above 92%. In addition, in [6], the remaining at 6 h is 99%. Moreover, the remaining at 12 h in series [7] turned out to be 100%.
Regarding `Cc1ncsc1-c1ccc(CNC(=O)[C@@H]2C[C@@H](O)CN2C(=O)[C@@H](NC(=O)CCOCCOCCOCCNS(=O)(=O)c2ccc(-c3cnc(N)c(C(=O)Nc4ccccc4)n3)cc2)C(C)(C)C)cc1`, the result in [9] and in series [10] was inactive. For the same compound, the remaining at 48 h in series [1] worked out at 103%. Further, in [2], the viability at 50 µM was 45.7%. The remaining at 24 h in series [3] was 102%. For the same compound, the remaining at 72 h in series [5] was 105%. Besides, the remaining at 6 h in [6] stood at 100%. In series [7], the remaining at 12 h was 100%.
`Nc1ncc(-c2ccc(S(=O)(=O)NCCCCCCC(=O)NCCCC#Cc3cccc4c3CN(C3CCC(=O)NC3=O)C4=O)cc2)nc1C(=O)Nc1ccccc1` (stereo not drawn): the remaining at 48 h in [1] was found to be 105%. The viability at 50 µM in series [2] amounted to 109%. In [3], the remaining at 24 h amounted to 105%. Further, in [15], the outcome was Active. In series [5], the remaining at 72 h came out at 109%. In addition, in [6], the remaining at 6 h amounted to 102%. In [7], the remaining at 12 h worked out at 103%.
For `CNCc1ccc(-c2nnc(-c3nc(-c4ccc(S(=O)(=O)NCCCCCC(=O)N5CCN(c6ccc7c(c6)C(=O)N(C6CCC(=O)NC6=O)C7=O)CC5)cc4)cnc3N)o2)cc1` (stereo not drawn), the remaining at 48 h in series [1] was 81%. The viability at 50 µM in [2] came out at 105%. Also, the remaining at 24 h in [3] came to 92%. Also, in series [5], the remaining at 72 h worked out at 71%. For the same compound, the outcome in [11] was inactive. Also, the remaining at 6 h in series [6] was 98%. Moreover, in series [7], the remaining at 12 h was found to be 95%.
Turning to `Nc1ncc(-c2ccc(S(=O)(=O)NCCCCCCCC(=O)NCCOc3ccc(C4CCC(=O)NC4=O)cc3)cc2)nc1C(=O)Nc1ccccc1` (stereo not drawn), the remaining at 48 h in series [1] came out at 100%. Besides, the viability at 50 µM in series [2] is 62.9%. Further, in series [3], the remaining at 24 h came to 100%. Further, the remaining at 72 h in [5] amounted to 100%. The result in series [11] was inactive. Besides, the remaining at 6 h in series [6] was 100%. Also, the remaining at 12 h in [7] came out at 99%.
For the compound `Nc1ncc(-c2ccc(S(=O)(=O)NCCCCC(=O)NCCOc3ccc(C4CCC(=O)NC4=O)cc3)cc2)nc1C(=O)Nc1ccccc1` (stereo not drawn), the remaining at 48 h in series [1] is 99%. The viability at 50 µM in series [2] worked out at 66.4%. Besides, the remaining at 24 h in [3] came out at 101%. In addition, in series [5], the remaining at 72 h is 99%. In [11], the outcome was inactive. For the same compound, the remaining at 6 h in series [6] is 101%. The remaining at 12 h in series [7] is 101%.
With `CCc1c2c(nc3ccc(OC(=O)N4CCC(N5CCCCC5)CC4)cc13)-c1cc3c(c(=O)n1C2)COC(=O)[C@]3(O)CC`, the result in series [16] was inactive.
Consider `Nc1ncc(-c2ccc(S(=O)(=O)NCCCCCCCC(=O)N3CCN(c4ccc5c(c4)C(=O)N(C4CCC(=O)NC4=O)C5=O)CC3)cc2)nc1C(=O)Nc1ccccc1` (stereo not drawn), for which the remaining at 48 h in series [1] is 94%. Also, the viability at 50 µM in [2] worked out at 90.5%. In addition, in series [3], the remaining at 24 h was determined as 108%. For the same compound, the remaining at 72 h in [5] stood at 84%. Also, the remaining at 6 h in [6] was 98%. The result in [17] was inactive. Besides, the remaining at 12 h in [7] was 105%.
For the compound `Nc1ncc(-c2ccc(S(=O)(=O)NCCCCCCC(=O)NCCOc3ccc(C4CCC(=O)NC4=O)cc3)cc2)nc1C(=O)Nc1ccccc1` (stereo not drawn), the remaining at 48 h in series [1] is 102%. In series [2], the viability at 50 µM is 95.7%. Also, in series [3], the remaining at 24 h stood at 102%. In addition, in series [5], the remaining at 72 h stood at 101%. For the same compound, the result in [11] was inactive. Further, the remaining at 6 h in [6] is 101%. In addition, the remaining at 12 h in series [7] was 103%.

Usually IC50 stands for the concentration needed to halve the response being measured.

Values taken from ChEMBL document CHEMBL5543092, “Design, synthesis, and biological characterization of proteolysis targeting chimera (PROTACs) for the ataxia telangiectasia and RAD3-related (ATR) kinase” (Eur J Med Chem, 2024).
